The values below are quoted from earlier work in paper PMC3983144 (Bioconjugate chemistry, 2014).

Broadly, the IC50 is the concentration at which inhibition is half-maximal.

The series relates to MC1R. To be noted: B16F1 melanoma cells.

Square brackets hold non-standard residues; d marks the D form. Nle = CCCC[C@H](N)C(=O)O

As to Ac-[Nle]DH[dF]RWGK-NH2 [NAPamide], the IC50 is 0.27 nM.
